Structures can show the parent of a compound that is named as a salt.
System: PDE4 enzyme of human origin
Assay: PDE4-inhibiting activity on an enzyme preparation obtained from the U937 cell line
Format: biochemical
Experimental: In the case of the PDE4 enzymes, this value is compared with that of rolipram, a specific PDE4 inhibitor. […] Measurement of the enzyme activity of the different types of PDE, and especially of the PDE4 enzymes, is then carried out according to a method adapted from W. J. Thompson, ibidem.

Compound	IC50
COC(=O)c1ccc2c(=O)n(C3N=C(c4ccccc4)c4cc(N)cc5c4N(CC5)C3=O)c(C)nc2c1 (stereo not shown) [Example 28A, Methyl 3-(9-amino-4-oxo-1-phenyl-3,4,6,7-tetrahydro-[1,4]diazepino[6,7,1-hi]indol-3-yl)-2-methyl-4-oxo-3,4-dihydroquinazoline-7-carboxylate]	0.005 µM
COc1ccc(C2CNC(=O)C2)cc1OC1CCCC1 (stereo not shown) [rolipram, reference compound]	0.792 µM
COc1cc2c3c(c1)C(c1ccccc1)=NC(n1c(C)nc4cc(C(=O)O)ccc4c1=O)C(=O)N3CC2 (stereo not shown) [Example 2C, 2-methyl-3-(9-methoxy-4-oxo-1-phenyl-3,4,6,7-tetrahydro[1,4]diazepino[6,7,1-hi]indol-3-yl)-4-oxo-3,4-dihydroquinazoline-7-carboxylic acid]	0.108 µM
Cc1nc2cc(C(=O)O)ccc2c(=O)n1C1N=C(c2ccccc2)c2cc(N)cc3c2N(CC3)C1=O (stereo not shown) [Example 28D, 3-(9-Amino-4oxo-1-phenyl-3,4,6,7-tetrahydro[1,4]diazepino[6,7,1-hi]indol-3-yl)-2-methyl-4-oxo-3,4-dihydroquinazoline-7-carboxylic acid]	0.009 µM
Cc1cc2c3c(c1)C(c1ccccc1)=NC(n1c(C)nc4cc(C(=O)N[C@@H](Cc5ccccc5)C(=O)O)ccc4c1=O)C(=O)N3CC2 (stereo partly shown) [Example 35C, N-(2-Methyl-3-(9-methyl-4-oxo-1-phenyl-3,4,6,7-tetrahydrol[1,4]diazepino[6,7,1-hi]indol-3-yl)-4-oxo-3,4-dihydroquinazoline-7-carboxyl)phenylalanine]	0.111 µM
CC(=O)OCCOC(=O)c1ccc2c(=O)n(C3N=C(c4ccccc4)c4cc(C)cc5c4N(CC5)C3=O)c(C)nc2c1 (stereo not shown) [Example 10A, 2-acetoxyethyl 2-methyl-3-(9-methyl-4-oxo-1-phenyl-3,4,6,7-tetrahydro[1,4]diazepino[6,7,1-hi]indol-3-yl)-4-oxo-3,4dihydroquinazoline-7-carboxylate]	0.108 µM
CNC(=O)c1ccc2c(=O)n(C3N=C(c4ccccc4)c4cc(C)cc5c4N(CC5)C3=O)c(C)nc2c1 (stereo not shown) [Example 9, 2-methyl-3-(9-methyl-4-oxo-1-phenyl-3,4,6,7-tetrahydro-[1,4]diazepino[6,7,1-hi]indol-3-yl)-4-oxo-3,4-dihydroquinazoline-7-(N-methylcarboxamide)]	0.063 µM
Cc1cc2c3c(c1)C(c1ccccc1)=NC(n1c(C)nc4cc(C(=O)NCCCN5CCOCC5)ccc4c1=O)C(=O)N3CC2 (stereo not shown) [Example 9C]	0.069 µM
Cc1cc2c3c(c1)C(c1ccccc1)=NC(n1c(C)nc4cccc(C(=O)O)c4c1=O)C(=O)N3CC2 (stereo not shown) [Example 6F, 2-methyl-3-(9-methyl-4-oxo-1-phenyl-3,4,6,7-tetrahydro[1,4]diazepino[6,7,1-hi]indol-3-yl)-4-oxo-3,4-dihydroquinazoline-5-carboxylic acid]	> 100 µM
Cc1cc2c3c(c1)C(c1ccccc1)=NC(n1c(C)nc4cc(C(=O)OCCO)ccc4c1=O)C(=O)N3CC2 (stereo not shown) [Example 10C, 2-Hydroxyethyl 2-methyl-3-(9-methyl-4-oxo-1-phenyl-3,4,6,7-tetrahydro[1,4]diazepino[6,7,1-hi]indol-3-yl)-4-oxo-3,4-dihydroquinazoline-7-carboxylate]	0.081 µM
Cc1cc2c3c(c1)C(c1ccccc1)=NC(n1c(C)nc4ccccc4c1=O)C(=O)N3CC2 (stereo not shown) [Example 2, 9-methyl-3-(2-methyl-4-oxo-4H-quinazolin-3-yl)-1-phenyl-6,7-dihydro-3H-[1,4]diazepino [6,7,1-hi] indol-4-one]	0.146 µM
COCc1nc2ccccc2c(=O)n1C1N=C(c2ccccc2)c2cc(C)cc3c2N(CC3)C1=O (stereo not shown) [Example 17A, 9-Methyl-3-(2-methyloxymethyl-4-oxo-4H-quinazolin-3-yl)-1-phenyl-6,7-dihydro-3H-[1,4]diazepino[6,7,1-hi]indol-4-one]	0.137 µM
CCOC(=O)c1nc2cccc(Cl)c2c(=O)n1C1N=C(c2ccccc2)c2cc(C)cc3c2N(CC3)C1=O (stereo not shown) [Example 15, Ethyl 5-chloro-3-(9-methyl-4-oxo-1-phenyl-3,4,6,7-tetrahydro-[1,4]diazepino[6,7,1-hi]indol-3-yl)-4oxo-3,4-dihydroquinazoline-2-carboxylate]	0.082 µM
Cc1cc2c3c(c1)C(c1ccccc1)=NC(n1c(COC(=O)CCC(=O)OCCN4CCOCC4)nc4ccccc4c1=O)C(=O)N3CC2 (stereo not shown) [Example 17F, 3-(9-Methyl-4-oxo-1-phenyl-3,4,6,7-tetrahydro-[1,4]diazepino[6,7,1-hi]indol-3-yl)-4-oxo-3,4-dihydroquinazolin-2-ylmethyl 2-morpholin-4-ylethyl succinnate]	0.147 µM
Cc1cc(Br)c2nc(C)n(C3N=C(c4ccccc4)c4cc([N+](=O)[O-])cc5c4N(CC5)C3=O)c(=O)c2c1 (stereo not shown) [Example 26, 3-(8-Bromo-2,6-dimethyl-4-oxo-4H-quinazolin-3-yl)-9-nitro-1-phenyl-6,7-dihydro-3H-[1,4]diazepino-[6,7,1-hi]indol-4-one]	90.6 µM
Cc1cc2c3c(c1)C(c1ccccc1)=NC(n1c(C)nc4cc(C(=O)N[C@@H](CCCCN)C(=O)O)ccc4c1=O)C(=O)N3CC2 (stereo partly shown) [Example 35I]	0.12 µM

Compound	IC50
Cc1nc2ccccc2c(=O)n1[C@@H]1N=C(c2ccccc2)c2cc(N)cc3c2N(CC3)C1=O [Example 28, (3S)-9-Amino-3-(2-methyl-4oxo-4H-quinazolin-3-yl)-1-phenyl-6,7-dihydro-3H-[1,4]diazepino[6,7,1-hi]indol-4-one]	0.005 µM
COc1ccc2c(=O)n(C3N=C(c4ccccc4)c4cc(C)cc5c4N(CC5)C3=O)c(C)nc2c1 (stereo not shown) [Example 6A, 3-(7-methoxy-2-methyl-4-oxo-4H-quinazolin-3-yl)-9-methyl-1-phenyl-6,7-dihydro-3H-[1,4]-diazepino[6,7,1-hi]indol-4-one]	0.133 µM
Cc1cc2c3c(c1)C(c1ccccc1)=N[C@@H](n1c(C)nc4cc(C(=O)O)ccc4c1=O)C(=O)N3CC2 [7E(S), (3S)-2-methyl-3-(9-methyl-4-oxo-1-phenyl-3,4,6,7-tetrahydro[1,4]diazepino[6,7,1-hi]indol-3-yl)-4-oxo-3,4-dihydroquinazoline-7-carboxylic acid]	0.035 µM
Cc1cc2c3c(c1)C(c1ccccc1)=NC(n1c(C)nc4cc(C(=O)O)ccc4c1=O)C(=O)N3CC2 [Example 7C, Salt of 2-methyl-3-(9-methyl-4-oxo-1-phenyl-3,4,6,7-tetrahydro[1,4]diazepino[6,7,1-hi]indol-3-yl)-4-oxo-3,4-dihydroquin azoline-7-carboxylic acid with D-glucamine]	0.066 µM
Cc1nc2ccccc2c(=O)n1[C@@H]1N=C(c2ccccc2)c2cccc3c2N(CC3)C1=O [Example 1, (3S)-3-(2-methyl-4-oxo-4H-quinazolin-3-yl)-1-phenyl-6,7-dihydro-3H[1,4]diazepino[6,7,1-hi]indol-4-one]	0.448 µM
Cc1cc(C)c2nc(C)n(C3N=C(c4ccccc4)c4cc([N+](=O)[O-])cc5c4N(CC5)C3=O)c(=O)c2c1 (stereo not shown) [Example 25, 3(2,6,8-Trimethyl-4-oxo-4H-quinazolin-3-yl)-9-nitro-1-phenyl-6,7-dihydro-3H-[1,4]diazepino[6,7,1-hi]indol-4-one]	> 100 µM
Cc1cc2c3c(c1)C(c1ccccc1)=NC(n1c(C)nc4cc(C(=O)N[C@@H](Cc5ccc(O)cc5)C(=O)O)ccc4c1=O)C(=O)N3CC2 (stereo partly shown) [Example 35A, N-(2-Methyl-3-(9-methyl-4-oxo-1-phenyl-3,4,6,7-tetrahydro[1,4]diazepino[6,7,1-hi]indol-3-yl)-4-oxo-3,4-dihydroquinazoline-7-carboxyl)tyrosine]	0.088 µM
Cc1ccc2nc(C)n(C3N=C(c4ccccc4)c4cc(N)cc5c4N(CC5)C3=O)c(=O)c2c1 (stereo not shown) [Example 31, 9-Amino-3-(2,6dimethyl-4-oxo-4H-quinazolin-^3-yl)-1-phenyl-6,7-dihydro-3H-[1,4]diazepino[6,7,1-hi]indol-4-one]	0.087 µM
Cc1cc2c3c(c1)C(c1ccccc1)=NC(n1c(C)nc4cc(C(=O)N[C@H](C(=O)O)C(C)C)ccc4c1=O)C(=O)N3CC2 (stereo partly shown) [Example 35, N-(2-methyl-3-(9-methyl-4-oxo-1-phenyl-3,4,6,7-tetrahydro[1,4]diazepino[6,7,1-hi]indol-3-yl)-4-oxo-3,4-dihydroquinazoline-7-carbonyl)valine]	0.106 µM
COC(=O)c1ccc2c(=O)n(C3N=C(c4ccccc4)c4cc(N)cc5c4N(CC5)C3=O)c(C)nc2c1 (stereo not shown) [Example 28C]	0.07 µM
Cc1cc2c3c(c1)C(c1ccccc1)=NC(n1c(C)nc4cc(C(=O)N[C@@H](CC(C)C)C(=O)O)ccc4c1=O)C(=O)N3CC2 (stereo partly shown) [Example 35E, N-(2-Methyl-3-(9-methyl-4-oxo-1-phenyl-3,4,6,7-tetrahydro[1,4]diazepino[6,7,1-hi]indol-3-yl)-4-oxo-3,4-dihydroquinazoline-7-carboxyl)leucine]	0.082 µM
Cc1cc2c3c(c1)C(c1ccccc1)=NC(n1cnc4ccccc4c1=O)C(=O)N3CC2 (stereo not shown) [Example 18, 3(9-Methyl-3-oxo-4H-quinazolin-3-yl)-1-phenyl-6,7-dihydro-3H-[1,4]diazepino[6,7,1-hi]indol-4one]	0.823 µM
COCCOCCOCC(=O)OCc1nc2ccccc2c(=O)n1C1N=C(c2ccccc2)c2cc(C)cc3c2N(CC3)C1=O (stereo not shown) [Example 17D, [3-(9-Methyl-4-oxo-1-phenyl-3,4,6,7-tetrahydro-[1,4]diazepino[6,7,1-hi]iondol-3-yl)-4-oxo-3,4-dihydroquinazolin-2-yl]methanol [2-(2-methoxyethoxy)ethoxy]acetate]	0.286 µM
Cc1cccc2nc(C)n(C3N=C(c4ccccc4)c4cc(N)cc5c4N(CC5)C3=O)c(=O)c12 (stereo not shown) [Example 30, 9-Amino-3-(2,5-dimethyl-4-oxo-4H-quinazolin-3-yl)-1-phenyl-6,7-dihydro-3H-[1,4]diazepino[6,7,1-hi]indol-4-one]	0.008 µM
Cc1cc2c3c(c1)C(c1ccccc1)=NC(n1c(COC(=O)CCC(=O)NCCN4CCOCC4)nc4ccccc4c1=O)C(=O)N3CC2 (stereo not shown) [Example 17E, 3-(9-Methyl-4-oxo-1-phenyl-3,4,6,7-tetrahydro-[1,4]diazepino [6,7,1-hi]indol-3-yl)-4-oxo-3,4-dihydroquinazolin-2-ylmethyl N-(2-morpholin-4-ylethyl)succinamate]	0.222 µM

From patent publication US6239130A, “Phosphodiesterase 4-inhibiting diazepinoindolones” (Warner-Lambert Company, priority 1997, dated 2001)
